This note sets out measurements from ChEMBL document CHEMBL1201862, “PubChem BioAssay data set” (2004).

Each structure is given as a SMILES string.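 Five concentrations, 48 hours, 96-well plates. GI50 is the concentration that inhibits growth by half.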 Activity calls are given as the source filed them. Cut-off read from the data, not from the text of the source: active = GI50 up to about 1.1 µM and inactive = higher.

Among the test systems are OVCAR-5; SNB-75; IGROV-1; EKVX; SR; SF-268; HT-29; SNB-19; Hs-578T; U-251; SF-295; NCI/ADR-RES; SW-620; SK-MEL-28; CAKI-1; UACC-257; RXF 393; NCI-H460; T47D.
Experiment in all cases: NCI anticancer screen, dose series, 48 h

For `CCSC1=N/C(=C\c2ccco2)C(=O)N1`, the GI50 in the assay with OVCAR-5 was > 100 µM (inactive); with SNB-75, > 100 µM (inactive); with IGROV-1 it was 74.8 µM (inactive); in the assay on EKVX, > 100 µM (inactive); with SR it was > 100 µM (inactive); with SF-268, > 100 µM (inactive). Moreover, the GI50 is > 100 µM (inactive) with HT-29; 70.8 µM (inactive) with SNB-19; > 100 µM (inactive) in the assay on Hs-578T; > 100 µM (inactive) in the assay on U-251; > 100 µM (inactive) with SF-295; > 100 µM (inactive) with NCI/ADR-RES. The GI50 in the assay with SW-620 and in the assay with SK-MEL-28 was > 100 µM (inactive) in each case.
Turning to `C[C@@]12CCC(=O)c3coc(c31)C(=O)c1cc3c(cc12)C(=O)C=CC3=O` [HELENAQUINONE], the GI50 with OVCAR-5 is 20 µM (inactive); in the assay on CAKI-1, 21.1 µM (inactive); in the assay with SNB-75 it was 20.9 µM (inactive); with IGROV-1, 25.9 µM (inactive); with EKVX, 23.6 µM (inactive); with SR, 30.1 µM (inactive). Further, the GI50 was 11.6 µM (inactive) in the assay on UACC-257; 18.8 µM (inactive) in the assay on SF-268; 19.7 µM (inactive) in the assay on HT-29; > 100 µM (inactive) with SNB-19; 23.7 µM (inactive) in the assay with U-251; 16.7 µM (inactive) in the assay on SF-295. For the same molecule, the GI50 in the assay on RXF 393 was 21.2 µM (inactive); in the assay with SW-620, 19.1 µM (inactive); with NCI-H460, 26.6 µM (inactive); with SK-MEL-28, 16.3 µM (inactive).
In the case of `CCN(CC)c1ccc(C(=C2C=CC(=[N+](CC)CC)C=C2)c2ccccc2)cc1`, the GI50 in the assay on OVCAR-5 is 0.134 µM (active); in the assay with CAKI-1, 0.164 µM (active); in the assay with SNB-75, 0.0586 µM (active); in the assay with IGROV-1, 0.0689 µM (active); with EKVX, 0.108 µM (active); in the assay with SR it was 0.0224 µM (active). Moreover, the GI50 with UACC-257 is 0.0472 µM (active); in the assay on SF-268 it was 0.0366 µM (active); with HT-29 it was < 0.01 µM (active); with SNB-19, 0.043 µM (active); with U-251 it was 0.0234 µM (active); in the assay on SF-295, 0.0248 µM (active). Moreover, the GI50 in the assay with RXF 393 is 0.022 µM (active); with SW-620, 0.0291 µM (active); in the assay on NCI-H460, 0.0231 µM (active); in the assay on SK-MEL-28, 0.0537 µM (active).
For `N#CCCC1(CCC#N)CCc2ccccc2C1=O`, the GI50 in the assay with OVCAR-5, in the assay on CAKI-1, with SNB-75, with IGROV-1, with EKVX and in the assay with SR was > 100 µM (inactive) throughout. Further, the GI50 with UACC-257, in the assay with SF-268, with HT-29, in the assay on SNB-19, in the assay on U-251 and with NCI/ADR-RES was > 100 µM (inactive) each time. For the same molecule, the GI50 in the assay on SW-620, with NCI-H460, in the assay on SK-MEL-28 and in the assay with T47D was > 100 µM (inactive) in each case.
As for `CCOC(=O)/N=c1\ss/c(=N\C(=S)N(C)C)n1-c1ccccc1`, the GI50 is > 100 µM (inactive) with OVCAR-5; 48 µM (inactive) with CAKI-1; 6.03 µM (inactive) in the assay with SNB-75; 4.11 µM (inactive) in the assay on IGROV-1; > 100 µM (inactive) with EKVX; 3.72 µM (inactive) in the assay with SR. Further, the GI50 with UACC-257 was > 10 µM (inactive); in the assay on SF-268, 2.06 µM (inactive); in the assay with HT-29 it was 3.17 µM (inactive); with SNB-19, 47.2 µM (inactive); with U-251 it was 19.4 µM (inactive); in the assay with SF-295, 29.7 µM (inactive). Also, the GI50 with RXF 393 is 1.07 µM (active); in the assay with SW-620, > 10 µM (inactive); in the assay with NCI-H460, 2.7 µM (inactive); in the assay with SK-MEL-28 it was 1.82 µM (inactive).
As to `CC1=C(/C=C/C(C)=C/C=C/C(C)=C/C=C/C=C(C)/C=C/C=C(C)/C=C/C2=C(C)C(=O)C(O)CC2(C)C)C(C)(C)CC(O)C1=O` (stereo not given), the GI50 in the assay on OVCAR-5, in the assay with CAKI-1, in the assay on SNB-75, in the assay with IGROV-1, with EKVX and with SR was > 100 µM (inactive) throughout. Besides, the GI50 in the assay with UACC-257, with SF-268, in the assay with HT-29, in the assay with SNB-19, in the assay with U-251 and in the assay with SF-295 was > 100 µM (inactive) each time. Also, the GI50 with RXF 393, in the assay with SW-620, with NCI-H460 and with SK-MEL-28 was > 100 µM (inactive) throughout.
For the molecule `O=[N+]([O-])c1cccc(C2=NN(c3ccccc3)C[N+](c3ccc(Br)cc3)=N2)c1`, the GI50 is > 100 µM (inactive) in the assay on OVCAR-5; > 100 µM (inactive) with CAKI-1; > 100 µM (inactive) in the assay with SNB-75; 37.3 µM (inactive) with IGROV-1; > 100 µM (inactive) in the assay with EKVX; < 0.01 µM (active) in the assay with SR. The GI50 was > 100 µM (inactive) in the assay on UACC-257; > 100 µM (inactive) in the assay with SF-268; 47.4 µM (inactive) in the assay with HT-29; > 100 µM (inactive) in the assay on SNB-19; > 100 µM (inactive) in the assay with U-251; 64.9 µM (inactive) with SF-295. Moreover, the GI50 in the assay with RXF 393, in the assay on SW-620, in the assay with NCI-H460 and with SK-MEL-28 was > 100 µM (inactive) throughout.
Consider `CN(C)C(=N/O)/C(=N\O)N(C)C`, for which the GI50 in the assay on OVCAR-5, in the assay with CAKI-1, with SNB-75, in the assay with IGROV-1, in the assay on EKVX and in the assay on SR was > 100 µM (inactive) in each case. Besides, the GI50 in the assay on UACC-257, in the assay with SF-268, in the assay on HT-29, with SNB-19, in the assay with U-251 and in the assay with SF-295 was > 100 µM (inactive) throughout. For the same molecule, the GI50 in the assay on RXF 393, with SW-620, in the assay with NCI-H460 and in the assay with SK-MEL-28 was > 100 µM (inactive) each time.
For `O=C(CCc1nnc(S)[nH]1)NC12CC3CC(CC(C3)C1)C2`, the GI50 in the assay on OVCAR-5 is > 100 µM (inactive); in the assay on CAKI-1, > 70.5 µM (inactive); with SNB-75, > 100 µM (inactive); with IGROV-1 it was > 100 µM (inactive); with EKVX it was > 100 µM (inactive); with SR, 1 µM (active). For the same molecule, the GI50 was > 100 µM (inactive) with UACC-257; > 10 µM (inactive) with SF-268; > 100 µM (inactive) with HT-29; > 100 µM (inactive) in the assay with SNB-19; > 100 µM (inactive) in the assay on U-251; > 100 µM (inactive) in the assay with SF-295. The GI50 in the assay with RXF 393, with SW-620, with NCI-H460 and in the assay on SK-MEL-28 was > 100 µM (inactive) throughout.
As to `Cc1nn2c(nc1=O)sc1ccc3ccccc3c12`, the GI50 with OVCAR-5, in the assay on CAKI-1, with SNB-75, in the assay on IGROV-1, with EKVX and in the assay with SR was > 100 µM (inactive) throughout. Moreover, the GI50 in the assay on UACC-257, in the assay with SF-268, in the assay with HT-29, with SNB-19, in the assay on U-251 and in the assay on SF-295 was > 100 µM (inactive) throughout. Besides, the GI50 with RXF 393, in the assay on SW-620, with NCI-H460 and in the assay with SK-MEL-28 was > 100 µM (inactive) throughout.
On to `CCC(=O)Nc1nc2c(ncn2C2OC(COC(=O)CC)C(OC(=O)CC)C2OC(=O)CC)c(=O)[nH]1` (stereo not given), for which the GI50 with OVCAR-5, in the assay on CAKI-1, in the assay with SNB-75, in the assay with IGROV-1, with EKVX and with SR was > 100 µM (inactive) in each case. Further, the GI50 with UACC-257, with SF-268, in the assay on HT-29, with SNB-19, in the assay with U-251 and in the assay on SF-295 was > 100 µM (inactive) in each case. In addition, the GI50 in the assay with RXF 393, with SW-620, with NCI-H460 and in the assay with SK-MEL-28 was > 100 µM (inactive) in each case.
As for `COc1ccc(CC(C)N)cc1` (stereo not given) [PARA-METHOXYAMPHETAMINE], the GI50 in the assay with OVCAR-5, in the assay on CAKI-1, in the assay on SNB-75, with IGROV-1, with EKVX and in the assay with SR was > 100 µM (inactive) in each case. For the same molecule, the GI50 in the assay with UACC-257, with SF-268, with HT-29, in the assay on SNB-19, in the assay with U-251 and in the assay on SF-295 was > 100 µM (inactive) each time. Moreover, the GI50 with RXF 393, in the assay with SW-620, with NCI-H460 and in the assay with SK-MEL-28 was > 100 µM (inactive) throughout.
